The target of the assay is MT1-MMP hemopexin domain (Homo sapiens, UniProt P50281). The settings on record: Human MT1-MMP FP direct binding; fluoresceinated bicyclic peptide titrated with hemopexin domain; molecular scaffold TBMB. The method, then: Direct Binding Fluorescence Polarisation or Anisotropy Assays are performed by titrating a constant concentration of fluorescent tracer (here, the fluoresceinated bicyclic peptide to be studied) with its binding partner (here, the MT1-MMP hemopexin domain). As the concentration of binding partner increases during the titration, the polarisation signal changes in proportion to the fraction of bound and unbound material. This allows determination of […] (Kd) quantitatively. Assay data can be fit using standard ligand binding equations.
The titrant (binding partner) concentration is varied from 0.1 nM up to typically 5 μM. The range is chosen such that the maximum change in fluorescent polarisation can be observed. Buffers employed are phosphate buffered saline in the presence of 0.01% Tween. Experiments were run in black 384 well low-bind/low volume plates (Corning 3820), and the fluorescent polarisation signal was measured using a BMG Pherastar FS plate reader. […] Fluoresceination may be performed on the N-terminal amino group of the peptide, which is separated from the bicycle core sequence by a sarcosine spacer (usually Sar5). This can be done during Fmoc solid phase synthesis or post-synthetically (after cyclisation with TBMB and purification) if the N-terminal amino group is unique to the peptide. Fluoresceination can also be performed on the C-terminus, usually on a Lysine introduced as the first C-terminal residue, which is then separated from the bicycle core sequence by a sarcosine spacer (usually Sar6). Thus, N-terminal tracers can have a molecular format described as Fluo-Gly-Sar6-A (BicycleCoreSequence), and (BicycleCoreSequence)-A-Sar6-K(Fluo) for a C-terminally fluoresceinated construct.
Fluorescent tracers used in the Examples include BCY1323-Sar6-K(FI), BCY1326-Sar6-K(FI), BCY3418-Sar6-K(FI), BCY3422-K(FI), and BCY1329-Sar6-K(FI).
Consider “fluoresceinated bicyclic peptide tracer on TBMB, used as BCY1323-Sar6-K(FI); sequence not given”, for which the dissociation constant Kd was determined as 35.9 ± 6.65 nM.
In the case of “fluoresceinated bicyclic peptide tracer on TBMB, used as BCY1326-Sar6-K(FI); sequence not given”, the affinity, expressed as Kd, was 218 nM.
In the case of “fluoresceinated bicyclic peptide tracer on TBMB, used as BCY1329-Sar6-K(FI); sequence not given” it was 22.1 ± 11 nM.

What is called Kd is the equilibrium constant for the complex coming apart. A high value points to weaker binding.

Source of the values: US12491253B2, “Bicyclic peptide ligands specific for MT1-MMP” (BicycleRD Limited, priority 2018, dated 2025).
